Data on four compounds can be found in PMC12198292, “Advancing in vitro assessment of iodide uptake inhibition: integrating a novel biotransformation pretreatment step” (Archives of Toxicology, 2025).

As usually defined, the IC50 is the concentration at which inhibition is half-maximal.

The target of data set [1] is T1, human NIS (Homo sapiens, UniProt Q92911).
T1 sequence (Q92911 1-643): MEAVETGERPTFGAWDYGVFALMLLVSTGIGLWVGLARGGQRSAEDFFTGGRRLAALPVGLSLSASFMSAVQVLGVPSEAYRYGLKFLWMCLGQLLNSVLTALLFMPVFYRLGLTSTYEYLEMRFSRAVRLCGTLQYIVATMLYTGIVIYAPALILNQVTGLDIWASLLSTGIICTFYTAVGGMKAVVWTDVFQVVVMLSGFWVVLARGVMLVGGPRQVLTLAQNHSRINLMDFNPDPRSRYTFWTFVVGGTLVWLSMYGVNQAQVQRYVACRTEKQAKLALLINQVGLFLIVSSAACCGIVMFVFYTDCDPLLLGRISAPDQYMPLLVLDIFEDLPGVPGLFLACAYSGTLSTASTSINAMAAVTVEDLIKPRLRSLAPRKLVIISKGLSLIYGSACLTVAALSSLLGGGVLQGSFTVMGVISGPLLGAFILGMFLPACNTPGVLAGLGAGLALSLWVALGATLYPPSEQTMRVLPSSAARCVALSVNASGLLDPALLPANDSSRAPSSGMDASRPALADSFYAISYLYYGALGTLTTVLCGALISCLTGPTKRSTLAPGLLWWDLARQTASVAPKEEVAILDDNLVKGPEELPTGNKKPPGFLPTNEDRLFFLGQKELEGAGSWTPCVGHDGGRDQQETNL
Put plainly: NIS-inhibition assay (iodide uptake, Sandell–Kolthoff reaction) on HEK293T NIS C. The format is cell-based. Details: host or cells: HEK293T (lentiviral transduction, puromycin selection, GFP sorting; lines NIS 02 and NIS C).

On the set-up of data set [2]: method as in PubChem https://pubchem.ncbi.nlm.nih.gov/. The note with it: ref PubChem https://pubchem.ncbi.nlm.nih.gov/; cited from earlier work.
Data set [3] concerns the target T1, human NIS. As to the kind of experiment: NIS-inhibition assay (iodide uptake, Sandell–Kolthoff reaction) on HEK293T NIS 02. Details: host or cells: HEK293T (lentiviral transduction, puromycin selection, GFP sorting; lines NIS 02 and NIS C). The format is cell-based.
Data set [4] has as its target T2, NIS (Rattus norvegicus, UniProt Q63008).
T2 construct: the endogenously NIS-expressing rat FRTL-5 cell line; host or cells: FRTL-5 (CVCL_0265)
T2 sequence (Q63008 1-618): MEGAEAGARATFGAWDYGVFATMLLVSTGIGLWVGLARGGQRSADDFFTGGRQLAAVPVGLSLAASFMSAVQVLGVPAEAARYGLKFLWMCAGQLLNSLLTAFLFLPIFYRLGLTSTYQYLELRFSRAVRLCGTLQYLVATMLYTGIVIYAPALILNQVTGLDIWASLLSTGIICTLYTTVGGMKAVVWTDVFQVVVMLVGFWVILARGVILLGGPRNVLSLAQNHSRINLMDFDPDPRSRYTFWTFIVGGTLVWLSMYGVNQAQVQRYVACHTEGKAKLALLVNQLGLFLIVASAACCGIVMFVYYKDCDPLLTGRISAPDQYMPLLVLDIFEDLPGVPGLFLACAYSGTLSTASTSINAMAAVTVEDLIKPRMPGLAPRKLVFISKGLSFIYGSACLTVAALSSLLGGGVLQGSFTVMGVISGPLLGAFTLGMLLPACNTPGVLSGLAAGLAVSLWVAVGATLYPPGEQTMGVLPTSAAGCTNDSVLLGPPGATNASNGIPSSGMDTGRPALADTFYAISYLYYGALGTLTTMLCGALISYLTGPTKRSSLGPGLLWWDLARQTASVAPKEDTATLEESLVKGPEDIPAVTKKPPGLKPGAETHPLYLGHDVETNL
As to the kind of experiment: NIS-inhibition assay (iodide uptake, Sandell–Kolthoff reaction) on FRTL-5. The format is cell-based. The note with it: mean ± SD, ≥ 3 independent experiments; 2 h exposure; SK reaction.

Data set [5] deals with T1, human NIS. More on the design: host or cells: HEK293T (lentiviral transduction, puromycin selection, GFP sorting; lines NIS 02 and NIS C). The following applies: cited from earlier work; for IC50: read-out: Data from literature NIS IC50; for IC20: read-out: Data from literature NIS IC20.
Details of data set [6]: method as in PubChem https://pubchem.ncbi.nlm.nih.gov/. The note with it: ref PubChem https://pubchem.ncbi.nlm.nih.gov/; cited from earlier work. This is another data set of the same source.
In the next data set the test system is HEK293T NIS C cells. Put plainly: Neutral red uptake viability assay, HEK293T NIS C. The following applies: read-out: NR IC20 HEK293T NISC, mean±SD, 2 h exposure.
For a further data set, the system named is HEK293T NIS02 cells. As to the kind of experiment: Neutral red uptake viability assay, HEK293T NIS02.
For another data set, the system named is FRTL-5 cells. As to the kind of experiment: Neutral red uptake viability assay, FRTL-5. The following applies: read-out: NR IC20 FRTL-5, mean±SD, 2 h exposure.
Data set [7] addresses T2, NIS. The note with it: FRTL-5, SK, read-out: Data from literature NIS IC50, cited from earlier work.
The nature of data set [8]: in vitro. The following applies: human.
Data set [9] concerns the target T1, human NIS. Put plainly: Biotransformation (BTS, rat S9)-augmented NIS-inhibition assay, HEK293T NIS02. The following applies: for effect of fully active BTS (W/S9, W/cof) on NIS inhibition versus control setups: two-way ANOVA, p < 0.05.
Data set [10] concerns the target T1, human NIS.
A short description of data set [11]: in vitro. The following applies: rat, FRTL-5 cells.
A short description of data set [12]: in vitro. The following applies: human, HEK293T NIS C cells.
Data set [13] deals with T1, human NIS. Details: host or cells: HEK293T (lentiviral transduction, puromycin selection, GFP sorting; lines NIS 02 and NIS C); method as in Dong et al., 2019. The following applies: hNIS-HEK293T-EPA, SK, ref Dong et al., 2019, cited from earlier work.
For the next data set, the system named is whale NIS. Details: method as in Concilio et al., 2020. The note with it: HeLa transfected with whale NIS; RAIU; ref Concilio et al., 2020; read-out: Data from literature NIS IC50; cited from earlier work.
The subject of a further data set is zebrafish NIS. Details: method as in Concilio et al., 2020. The note with it: HeLa transfected with zebrafish NIS; RAIU; ref Concilio et al., 2020; read-out: Data from literature NIS IC50; cited from earlier work.
For data set [14] the following is noted: ref PubChem https://pubchem.ncbi.nlm.nih.gov/; cited from earlier work.
Data set [15] has as its target T2, NIS. The following applies: FRTL-5, RAIU, read-out: Data from literature NIS IC50, cited from earlier work.
Data set [16] has as its target T1, human NIS. More on the design: method as in Dong et al., 2019. The following applies: MCF7hNIS, SK, ref Dong et al., 2019, cited from earlier work.
Another data set has as its system hNIS. More on the design: method as in Concilio et al., 2020. The note with it: HeLa transfected with hNIS; RAIU; ref Concilio et al., 2020; read-out: Data from literature NIS IC50; cited from earlier work.
Where [17] appears, read: mean ± SD, ≥ 3 independent experiments, 2 h exposure, SK reaction, read-out: NIS IC50 HEK293T NIS C.
Where [18] appears, read: mean ± SD, ≥ 3 independent experiments, 2 h exposure, SK reaction, read-out: NIS IC50 HEK293T NIS 02.
The mark [19] stands for this setting: hNIS-HEK293T-EPA, RAIU, ref US-EPA, 2024.
Where [20] appears, read: hNIS-HEK293T-EPA, RAIU, ref Hallinger et al., 2017.
Setting [21] is: read-out: Data from literature NIS IC20.
Where [22] appears, read: read-out: Data from literature NIS IC50.
[23] abbreviates: hNIS-HEK293T-EPA, RAIU, ref Dong et al., 2019.

Each structure is given as a SMILES string. Several values for one entry are separate records, joined by “and”; a condition that tells them apart may be missing. Equal entries are not always repeated. Where two headings read alike, the source gives them in different places.

Turning to `CC(C)(c1cc(Br)c(O)c(Br)c1)c1cc(Br)c(O)c(Br)c1` [TBBPA, Tetrabromobisphenol A], the IC50 at human NIS [1] (setting [17]) is 54 ± 27.1 µM; on human NIS [3] (setting [18]), 30.1 ± 11.8 µM; at NIS [4], 91.8 ± 10.8 µM; on human NIS [5] (setting [19]), 91.1 µM. The “log Kow” value in data set [2] was 4.75. Also, the “Henry‘s law” value in data set [6] is recorded as 2.0x10^-7 atm- m^3/mol. Also, the IC20 was 57.6 µM with HEK293T NIS C cells; 66.8 µM in the data set on HEK293T NIS02 cells (read-out: NR IC20 HEK293T NIS02, viability, neutral red assay, mean±SD, 2 h exposure); 33.4 µM with FRTL-5 cells.

In the case of `Oc1cc(Cl)ccc1Oc1ccc(Cl)cc1Cl` [TCS, Triclosan], the IC50 against human NIS [1] is 34.8 ± 23.5 µM; on NIS [7] (ref Wu et al., 2016), 21.3 µM; at human NIS [3] (NIS IC50 HEK293T NIS 02), 18.5 ± 9.9 µM; against NIS [4], 39.3 ± 18.9 µM. The same compound gave an IC20 at 2 h in “in vitro [8]” of 45.9 µM. In addition, the IC20 was 2.6 µM at human NIS [5]; 1.07 ± 0.65 µM at human NIS [9] (read-out: NIS inhibition IC20 D S9, W/cof, 5 h preincubation with denatured S9 and cofactors, three independent experiments); 1.78 ± 1.12 µM at human NIS [9] (read-out: NIS inhibition IC20 SM); 1.02 ± 0.82 µM at human NIS [9] (read-out: NIS inhibition IC20 W/O S9, W/cof, 5 h preincubation without S9 fraction, with all cofactors, three independent experiments). Further, the “increase of IC20 by preincubation in fully active BTS setup compared to the denatured BTS setup” value on human NIS [9] is given as “approximately 5 fold”. Also, the “effect of fully active BTS (W/S9, W/cof) on NIS inhibition versus control setups” value (shortened to “effect … on NIS inhibition versus control setups”) on human NIS [9] was “statistically significant reduction in NIS inhibition”. Moreover, the “cytotoxicity in the standard NIS assay (NR and CTG)” value in the data set on HEK293T NIS02 cells (100 µM) is recorded as “cytotoxic”.

For the compound `CC(C)(c1ccc(O)cc1)c1ccc(O)cc1` [BPA, Bisphenol A], the IC50 was 309 ± 2.5 µM on human NIS [1] (setting [17]); 112 µM on NIS [7] (ref Wu et al., 2016); 111 ± 75 µM on human NIS [3] (setting [18]); 302 ± 197 µM at NIS [4]. Further, the “log Kow” value in data set [2] was 3.32. For the same compound, the “effect … on NIS inhibition versus control setups” value on human NIS [10] is reported as “statistically significant reduction in NIS inhibition”. Moreover, the IC20 at 2 h in “in vitro [11]” is 364 µM; in “in vitro [12]”, 181 µM. Besides, the IC20 on human NIS [5] (setting [20]) was 35.5 µM; at human NIS [5] (setting [19]) it was 24.3 ± 21.6 µM; on human NIS [5] (hNIS-HEK293T-EPA, RAIU, ref Wang et al., 2019), 19.5 µM; at human NIS [9] (read-out: NIS inhibition IC20 SM, standard method without preincubation, run in parallel, three independent experiments) it was 4.7 ± 6 µM. In addition, the “Data from literature NIS IC50” value on human NIS [5] (hNIS-HEK293T-EPA, RAIU, ref Wang et al., 2018) is reported as “n.e”. For the same compound, the “increase of IC20 by preincubation in fully active BTS setup compared to the denatured BTS setup” value on human NIS [9] (W/S9, W/cof vs D S9, W/cof) is ~6.3 fold. Moreover, in data set [6], the “Henry‘s law” value is 4.0x10^-11 atm- m^3/mol.

For the compound `[O-][Cl+3]([O-])([O-])O` [PCL, Perchlorate, reference compound], the IC20 is 0.2 µM at human NIS [13] (setting [21]), 0.1 µM at human NIS [5] (setting [23]), 0.2 µM on human NIS [5] (setting [20]) and 0.2 µM on human NIS [16] (setting [21]). The IC50 was 0.8 µM on human NIS [13] (setting [22]); 4.6 µM and 4.59 µM in the data set on whale NIS; 14.9 ± 8.3 µM at human NIS [1] (setting [17]); 0.08 µM in the data set with zebrafish NIS; 0.1 µM at NIS [7] (ref Waltz et al., 2010); 0.3 µM at NIS [7] (ref Wu et al., 2016). Also, the half-maximal inhibitory concentration (IC50) was 0.2 µM at NIS [15] (ref Buckalew et al., 2020); 0.14 µM at NIS [15] (ref Waltz et al., 2010); 1.65 ± 0.57 µM at human NIS [3] (setting [18]); 5.1 ± 4.6 µM against NIS [4]; 0.53 µM at human NIS [5] (setting [23]); 0.5 µM at human NIS [16] (setting [22]). For the same compound, the IC50 with hNIS was 1.6 µM and 1.56 µM. Besides, the solubility in water in data set [14] is >2000 mg/mL. Moreover, the “effect … on NIS inhibition versus control setups” value on human NIS [9] is “no significant differences were observed”.
